Measurements from ChEMBL document CHEMBL3044927, “Novel 4(3H)-quinazolinone analogs: synthesis and anticonvulsant activity” (Med Chem Res, 2013).
The source made the active and inactive calls. The calls are words filed in the database; no cut-off is given here.

Key:
Mus musculus [1] = assay: Anticonvulsant activity in Swiss albino Mus musculus (mouse) assessed as protection against PTZ-induced seizure at 1.5 mmol/kg, ip administered 30 min prior to PTZ-challenge measured up to 30 min relative to control; assay type: functional
[2] = Therapeutic index, ratio of LD50 to ED50 in Swiss albino Mus musculus (mouse); assay type: organism-based; details: in vivo, read-out: Ratio LD50/ED50
Mus musculus [3] = assay: Neurotoxicity against Swiss albino Mus musculus (mouse) at 0.18 mmol/kg, ip measured after 15 to 25 min by chimney test; assay type: toxicity, organism-based; details: in vivo
Mus musculus [4] = assay: Neurotoxicity against Swiss albino Mus musculus (mouse) at 1.5 mmol/kg, ip measured after 15 to 25 min by chimney test; assay type: toxicity, organism-based; details: in vivo
Mus musculus [5] = assay: Neurotoxicity against Swiss albino Mus musculus (mouse) at 0.37 mmol/kg, ip measured after 15 to 25 min by chimney test; assay type: toxicity, organism-based; details: in vivo
Mus musculus [6] = assay: Anticonvulsant activity in ip dosed Swiss albino Mus musculus (mouse) assessed as protection against PTZ-induced seizure administered 30 min prior to PTZ-challenge measured up to 30 min; assay type: functional
[7] = Toxicity against i.p. dosed Swiss albino Mus musculus (mouse) by Sperman-Karber method; assay type: organism-based; details: in vivo, ip
Mus musculus [8] = assay: Anticonvulsant activity in Swiss albino Mus musculus (mouse) assessed as protection against maximal electric shock-induced seizure at 0.75 mmol/kg, i.p. administered 30 min prior to maximal electric shock-challenge measured up to 30 min relative to control; assay type: functional
Mus musculus [9] = assay: Anticonvulsant activity in Swiss albino Mus musculus (mouse) assessed as protection against PTZ-induced seizure at 0.37 mmol/kg, ip administered 30 min prior to PTZ-challenge measured up to 30 min relative to control; assay type: functional
Mus musculus [10] = assay: Anticonvulsant activity in Swiss albino Mus musculus (mouse) assessed as protection against bicuculline-induced seizure at 0.18 mmol/kg, i.p. administered 30 min prior to bicuculline-challenge measured up to 30 min relative to control; assay type: functional
Mus musculus [11] = assay: Anticonvulsant activity in Swiss albino Mus musculus (mouse) assessed as protection against bicuculline-induced seizure at 0.75 mmol/kg, i.p. administered 30 min prior to bicuculline-challenge measured up to 30 min relative to control; assay type: functional
Mus musculus [12] = assay: Anticonvulsant activity in Swiss albino Mus musculus (mouse) assessed as protection against PTZ-induced seizure at 0.18 mmol/kg, ip administered 30 min prior to PTZ-challenge measured up to 30 min relative to control; assay type: functional
Mus musculus [13] = assay: Anticonvulsant activity in Swiss albino Mus musculus (mouse) assessed as protection against picrotoxin-induced seizure at 0.37 mmol/kg, i.p. administered 30 min prior to picrotoxin-challenge measured up to 30 min relative to control; assay type: functional
Mus musculus [14] = assay: Anticonvulsant activity in Swiss albino Mus musculus (mouse) assessed as protection against bicuculline-induced seizure at 0.37 mmol/kg, i.p. administered 30 min prior to bicuculline-challenge measured up to 30 min relative to control; assay type: functional
Mus musculus [15] = organism: Mus musculus; assay: Protective index, ratio of TD50 for to ED50 in Swiss albino Mus musculus (mouse)
[16] = Neurotoxicity against ip dosed Swiss albino Mus musculus (mouse) measured after 15 to 25 min by chimney test; assay type: toxicity, organism-based; details: in vivo
Mus musculus [17] = assay: Anticonvulsant activity in Swiss albino Mus musculus (mouse) assessed as protection against PTZ-induced seizure at 0.75 mmol/kg, ip administered 30 min prior to PTZ-challenge measured up to 30 min relative to control; assay type: functional
Mus musculus [18] = assay: Anticonvulsant activity in Swiss albino Mus musculus (mouse) assessed as protection against maximal electric shock-induced seizure at 0.37 mmol/kg, i.p. administered 30 min prior to maximal electric shock-challenge measured up to 30 min relative to control; assay type: functional
Mus musculus [19] = assay: Anticonvulsant activity in Swiss albino Mus musculus (mouse) assessed as protection against maximal electric shock-induced seizure at 1.5 mmol/kg, ip administered 30 min prior to maximal electric shock-challenge measured up to 30 min relative to control; assay type: functional
Mus musculus [20] = assay: Anticonvulsant activity in Swiss albino Mus musculus (mouse) assessed as protection against bicuculline-induced seizure at 1.5 mmol/kg, ip administered 30 min prior to bicuculline-challenge measured up to 30 min relative to control; assay type: functional
Mus musculus [21] = assay: Anticonvulsant activity in Swiss albino Mus musculus (mouse) assessed as protection against maximal electric shock-induced seizure at 0.18 mmol/kg, i.p. administered 30 min prior to maximal electric shock-challenge measured up to 30 min relative to control; assay type: functional
Mus musculus [22] = assay: Neurotoxicity against Swiss albino Mus musculus (mouse) at 0.75 mmol/kg, ip measured after 15 to 25 min by chimney test; assay type: toxicity, organism-based; details: in vivo
Mus musculus [23] = assay: Anticonvulsant activity in Swiss albino Mus musculus (mouse) assessed as protection against picrotoxin-induced seizure at 1.5 mmol/kg, ip administered 30 min prior to picrotoxin-challenge measured up to 30 min relative to control; assay type: functional
[24] = Toxicity against Swiss albino Mus musculus (mouse) assessed as mortality at 1.5 mmol/kg, ip; assay type: organism-based; details: in vivo, read-out: Activity
Mus musculus [25] = assay: Anticonvulsant activity in Swiss albino Mus musculus (mouse) assessed as protection against picrotoxin-induced seizure at 1.38 mmol/kg, ip administered 30 min prior to picrotoxin-challenge measured up to 30 min relative to control; assay type: functional
Mus musculus [26] = assay: Anticonvulsant activity in Swiss albino Mus musculus (mouse) assessed as protection against bicuculline-induced seizure at 1.38 mmol/kg, ip administered 30 min prior to bicuculline-challenge measured up to 30 min relative to control; assay type: functional
Mus musculus [27] = assay: Anticonvulsant activity in Swiss albino Mus musculus (mouse) assessed as protection against maximal electric shock-induced seizure at 1.38 mmol/kg, ip administered 30 min prior to maximal electric shock-challenge measured up to 30 min relative to control; assay type: functional
Mus musculus [28] = assay: Anticonvulsant activity in Swiss albino Mus musculus (mouse) assessed as protection against PTZ-induced seizure at 1.38 mmol/kg, ip administered 30 min prior to PTZ-challenge measured up to 30 min relative to control; assay type: functional

With `O=C1c2cccc3cccc(c23)C(=O)N1Nc1nc2ccc([N+](=O)[O-])cc2c(=O)n1Cc1ccccc1` the Activity (Mus musculus [1]) was 30%.

Compound `Cc1ccc2nc(SCC(=O)NN3C(=O)c4c(Cl)c(Cl)c(Cl)c(Cl)c4C3=O)n(-c3ccccc3)c(=O)c2c1` has a selectivity ratio [2] of 2.82, an Activity (Mus musculus [3]) of 0% and an Activity (Mus musculus [4]) of 100%. For the same compound, the Activity (Mus musculus [5]) was 0%, the ED50 (Mus musculus [6]) was 457 mg/kg and the LD50 [7] was 1290 mg/kg. It also gave an Activity (Mus musculus [8]) of 10%, an Activity (Mus musculus [9]) of 30% and an Activity (Mus musculus [10]) of 0%. It also gave an Activity (Mus musculus [11]) of 70%, an Activity (Mus musculus [12]) of 0% and an Activity (Mus musculus [13]) of 20%. For the same compound, the Activity (Mus musculus [14]) was 10%, the “Ratio TD50/ED50” value (Mus musculus [15]) was 1.22 and the TD50 [16] was 562 mg/kg. It also gave an Activity (Mus musculus [17]) of 50%, an Activity (Mus musculus [18]) of 0% and an Activity (Mus musculus [19]) of 70%. The Activity (Mus musculus [20]) was 100%, the Activity (Mus musculus [21]) was 0% and the Activity (Mus musculus [1]) was 70%. The Activity (Mus musculus [22]) was 30%.

With `CCOC(=O)CSc1nc2ccc([N+](=O)[O-])cc2c(=O)n1-c1ccccc1` the Activity (Mus musculus [1]) was “inactive”.

With `O=C(Nn1c(-c2cccs2)nc2ccc(I)cc2c1=O)c1ccccc1` the Activity (Mus musculus [23]) was 80%, the Activity (Mus musculus [19]) was 0% and the Activity (Mus musculus [20]) was 100%. The Activity (Mus musculus [1]) was 100%.

In the case of `O=c1c2cc([N+](=O)[O-])ccc2nc(S)n1-c1ccccc1`, the Activity (Mus musculus [1]) is reported as 30%.

With `Cc1ccc2nc(SCC(=O)NN3C(=O)c4ccccc4C3=O)n(Cc3ccccc3)c(=O)c2c1` the Activity (Mus musculus [1]) was “inactive”.

With `Cc1ccc2nc(SCC(=O)NN)n(-c3ccccc3)c(=O)c2c1` the mortality [24] was 100% and the Activity (Mus musculus [1]) was “inactive”.

For `O=C(COc1nc(-c2cccs2)nc2ccc(I)cc12)NN1C(=O)c2ccccc2C1=O`, the Activity (Mus musculus [1]) was 30%.

With `NNc1nc2ccc([N+](=O)[O-])cc2c(=O)n1Cc1ccccc1` the Activity (Mus musculus [1]) was “inactive”.

With `CCOC(=O)COc1nc(-c2cccs2)nc2ccc(I)cc12` the Activity (Mus musculus [1]) was 30%.

In the case of `Cc1ccc2nc(SCC(=O)NN3C(=O)c4c(Cl)c(Cl)c(Cl)c(Cl)c4C3=O)n(Cc3ccccc3)c(=O)c2c1`, the Activity (Mus musculus [1]) is reported as “inactive”.

For `Cc1ccc2nc(SCC(=O)NN3C(=O)c4ccccc4C3=O)n(-c3ccccc3)c(=O)c2c1`, the Activity (Mus musculus [1]) was “inactive”.

With `Cc1ccc2nc(SCC(=O)NN)n(Cc3ccccc3)c(=O)c2c1` the mortality [24] was 100% and the Activity (Mus musculus [1]) was “inactive”.

With `Cc1ccc2nc(S)n(Cc3ccccc3)c(=O)c2c1` the Activity (Mus musculus [1]) was “inactive”.

With `O=C(Nc1ccc(I)cc1C(=O)O)c1cccs1` the Activity (Mus musculus [1]) was “inactive”.

For `Cc1ccc2nc(SCC(=O)NN3C(=O)c4cccc5cccc(c45)C3=O)n(-c3ccccc3)c(=O)c2c1`, the Activity (Mus musculus [1]) was “inactive”.

For `Cc1ccc2nc(SCC(=O)NN3C(=O)c4c(Br)c(Br)c(Br)c(Br)c4C3=O)n(-c3ccccc3)c(=O)c2c1`, the Activity (Mus musculus [1]) was “inactive”.

In the case of `CCCC(CCC)C(=O)[O-].[Na+]` [VALPROATE SODIUM], the Activity (Mus musculus [25]) is reported as 100%, the Activity (Mus musculus [26]) is reported as 100% and the Activity (Mus musculus [27]) is reported as 100%. It also gave an Activity (Mus musculus [28]) of 100%.

In the case of `Cc1ccc2nc(SCC(=O)NN3C(=O)c4c(Br)c(Br)c(Br)c(Br)c4C3=O)n(Cc3ccccc3)c(=O)c2c1`, the Activity (Mus musculus [1]) is reported as “inactive”.
